Source: patent US11053234B2 (GlaxoSmithKline Intellectual Property Development Limited, priority 2016, dated 2021)
Counter-ions that a name gives are not always drawn.

biological target: T1, haematopoietic prostaglandin D synthase (H-PGDS) (Homo sapiens, UniProt O60760); test: H-PGDS RapidFire high throughput mass spectrometry assay (conversion of PGH2 to PGD2); type: biochemical; conditions: 10 nM H-PGDS, PGH2 formed in situ by COX-2 from arachidonic acid; read-out: Potency Range (mean pIC50) (converted)
T1 construct: Full length human H-PGDS cDNA (Invitrogen Ultimate ORF 10H13026) was amplified by PCR; 6-His (N); TEV protease cleavage site (N); made in house; host or cells: E. coli BL21 (DE3*), vector pET22b+
T1 sequence (O60760 whole entry): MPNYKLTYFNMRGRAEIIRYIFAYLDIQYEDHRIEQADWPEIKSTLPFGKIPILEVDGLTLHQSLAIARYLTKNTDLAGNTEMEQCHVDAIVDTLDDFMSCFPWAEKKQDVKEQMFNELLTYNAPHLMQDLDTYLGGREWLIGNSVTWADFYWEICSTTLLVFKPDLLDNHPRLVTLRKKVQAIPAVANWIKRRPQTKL
Summary of the method: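 PGH2 substrate generated in situ by COX-2 (full-length human, FLAG-tagged, Sf9-expressed) from arachidonic acid at ˜10 μM, then converted by full-length human His-tagged H-PGDS (E. coli-expressed). RapidFire SPE–triple quadrupole MS measured PGD2 against PGF2α as substrate surrogate to give percent conversion.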

Row | SMILES | IC50
1 | CC(N[C@H]1CC[C@H](NC(=O)[C@H]2C[C@H](Oc3cccc4cccnc34)C2)CC1)C(F)(F)F (mixture of isomers) [Example 173, Racemic (trans)-3-(Quinolin-8-yloxy)-N-((trans)-4-((1,1,1-trifluoropropan-2-yl)amino)cyclohexyl)cyclobutanecarboxamide] | 0.01 to 0.0794 µM
2 | CC(C)(O)[C@@H]1CC[C@@H](NC(=O)[C@H]2C[C@H](Oc3cccc4cccnc34)C2)CO1 (racemic) [Example 195, Racemic (trans)-N-((trans)-6-(2-Hydroxypropan-2-yl)tetrahydro-2H-pyran-3-yl)-3-(quinolin-8-yloxy)cyclobutanecarboxamide] | 0.1 to 1 µM
3 | O=C(Nc1cc(C2CC2)n[nH]1)[C@H]1C[C@H](Oc2cccc3scnc23)C1 [Example 302, (trans)-3-(Benzo[d]thiazol-4-yloxy)-N-(3-cyclopropyl-1H-pyrazol-5-yl)cyclobutanecarboxamide] | 0.01 to 0.0794 µM
4 | Cc1nnc(NC(=O)[C@H]2C[C@H](Oc3cccc4ccoc34)C2)s1 [Example 266, (trans)-3-(Benzofuran-7-yloxy)-N-(5-methyl-1,3,4-thiadiazol-2-yl)cyclobutanecarboxamide] | 0.01 to 0.0794 µM
5 | CC1C(Oc2cc(F)cc3scnc23)CN1C(=O)N[C@H]1CC[C@H](C(C)(C)O)CC1 (mixture of isomers) [Example 236, Racemic 3-((6-Fluorobenzo[d]thiazol-4-yl)oxy)-N-((trans)-4-(2-hydroxypropan-2-yl)cyclohexyl)-2-methylazetidine-1-carboxamide] | 0.01 to 0.0794 µM
6 | CC(=O)c1csc(NC(=O)[C@H]2C[C@H](Oc3cc(Cl)ccc3OC(F)F)C2)n1 [Example 272, (trans)-N-(4-Acetylthiazol-2-yl)-3-(5-chloro-2-(difluoromethoxy)phenoxy)cyclobutanecarboxamide] | 0.01 to 0.0794 µM
7 | C=C(C)c1cnc(NC(=O)[C@H]2C[C@H](Oc3cccc4cccnc34)C2)s1 [Example 205, (trans)-N-(5-(Prop-1-en-2-yl)thiazol-2-yl)-3-(quinolin-8-yloxy)cyclobutanecarboxamide] | < 0.01 µM
8 | O=C(NC1CN(c2nccc(Cl)n2)C1)[C@H]1C[C@H](Oc2cccc3scnc23)C1 [Example 74, (trans)-3-(Benzo[d]thiazol-4-yloxy)-N-(1-(4-chloropyrimidin-2-yl)azetidin-3-yl)cyclobutanecarboxamide] | 0.01 to 0.0794 µM
9 | CC(C)(O)[C@H]1CC[C@H](NC(=O)[C@H]2C[C@H](Oc3cccn4ccnc34)C2)CC1 [Example 298, (trans)-N-((trans)-4-(2-Hydroxypropan-2-yl)cyclohexyl)-3-(imidazo[1,2-a]pyridin-8-yloxy)cyclobutanecarboxamide] | 0.1 to 1 µM
10 | O=C(Nc1nncs1)[C@H]1C[C@H](Oc2cccc3cccnc23)C1 [Example 216, (trans)-3-(Quinolin-8-yloxy)-N-(1,3,4-thiadiazol-2-yl)cyclobutanecarboxamide] | 0.01 to 0.0794 µM
11 | CS(=O)(=O)c1ccc(NC(=O)N2CC(Oc3cccc4scnc34)C2)c(F)c1 [Example 308, 3-(Benzo[d]thiazol-4-yloxy)-N-(2-fluoro-4-(methylsulfonyl)phenyl)azetidine-1-carboxamide] | 0.01 to 0.0794 µM
12 | COc1ccc(F)cc1O[C@H]1C[C@H](C(=O)Nc2nc(C(C)=O)cs2)C1 [Example 163, (trans)-N-(4-Acetylthiazol-2-yl)-3-(5-fluoro-2-methoxyphenoxy)cyclobutanecarboxamide] | 0.01 to 0.0794 µM
13 | CC(C)(O)[C@H]1CC[C@H](NC(=O)N2CC(Oc3cc(F)ccc3OC(F)F)C2)CC1 [Example 1, 3-(2-(Difluoromethoxy)-5-fluorophenoxy)-N-((trans)-4-(2-hydroxypropan-2-yl)cyclohexyl)azetidine-1-carboxamide] | 0.1 to 1 µM
14 | CC(C)(C)OC(=O)N1CCC(NC(=O)N2CC(Oc3cccc4scnc34)C2)CC1 [Example 96, tert-butyl 4-(3-(benzo[d]thiazol-4-yloxy)azetidine-1-carboxamido)piperidine-1-carboxylate] | 0.1 to 1 µM
15 | CC(C)c1csc(NC(=O)[C@H]2C[C@H](Oc3cccc4cccnc34)C2)n1 [Example 206, (trans)-N-(4-Isopropylthiazol-2-yl)-3-(quinolin-8-yloxy)cyclobutanecarboxamide] | < 0.01 µM
16 | O=C1CC(NC(=O)[C@H]2C[C@H](Oc3cccc4scnc34)C2)c2ccccc2N1 (mixture of isomers) [Example 84, Racemic (trans)-3-(Benzo[d]thiazol-4-yloxy)-N-(2-oxo-1,2,3,4-tetrahydroquinolin-4-yl)cyclobutanecarboxamide] | 0.01 to 0.0794 µM
17 | O=C(NC1CCN(C(=O)OCc2ccccc2)CC1)N1CC(Oc2cccc3scnc23)C1 [Example 89, Benzyl 4-(3-(benzo[d]thiazol-4-yloxy)azetidine-1-carboxamido)piperidine-1-carboxylate] | 0.01 to 0.0794 µM
18 | CC(=O)c1cnc(NC(=O)[C@H]2C[C@H](Oc3cccc4ccoc34)C2)s1 [Example 264, (trans)-N-(5-Acetylthiazol-2-yl)-3-(benzofuran-7-yloxy)cyclobutanecarboxamide] | 0.01 to 0.0794 µM

Row | SMILES | IC50
19 | O=C(Nc1nccs1)[C@H]1C[C@H](Oc2cc(F)cc3cccnc23)C1 [Example 294, (trans)-3-((6-Fluoroquinolin-8-yl)oxy)-N-(thiazol-2-yl)cyclobutanecarboxamide] | 0.01 to 0.0794 µM
20 | CC(C)(O)CO[C@H]1CC[C@H](NC(=O)[C@H]2C[C@H](Oc3cccc4cccnc34)C2)CC1 [Example 220, (trans)-N-((trans)-4-(2-Hydroxy-2-methylpropoxy)cyclohexyl)-3-(quinolin-8-yloxy)cyclobutanecarboxamide] | 0.1 to 1 µM
21 | CC(=O)c1csc(NC(=O)[C@H]2C[C@H](Oc3cccc4scnc34)C2)n1 [Example 68, (trans)-N-(4-Acetylthiazol-2-yl)-3-(benzo[d]thiazol-4-yloxy)cyclobutanecarboxamide] | 0.01 to 0.0794 µM
22 | O=C(NC1CN(c2ccccn2)C1)[C@H]1C[C@H](Oc2cc(F)ccc2OC(F)F)C1 [Example 18, (trans)-3-(2-(Difluoromethoxy)-5-fluorophenoxy)-N-(1-(pyridin-2-yl)azetidin-3-yl)cyclobutanecarboxamide] | 0.01 to 0.0794 µM
23 | O=C(N[C@H]1CC[C@H](Nc2ncccn2)CC1)[C@H]1C[C@H](Oc2cc(F)ccc2OC(F)F)C1 [Example 10, (trans)-3-(2-(Difluoromethoxy)-5-fluorophenoxy)-N-((trans)-4-(pyrimidin-2-ylamino)cyclohexyl)cyclobutanecarboxamide] | 0.01 to 0.0794 µM
24 | O=C(Nc1nc(CO)cs1)[C@H]1C[C@H](Oc2cccc3cccnc23)C1 [Example 215, (trans)-N-(4-(Hydroxymethyl)thiazol-2-yl)-3-(quinolin-8-yloxy)cyclobutanecarboxamide] | 0.01 to 0.0794 µM
25 | CC(C)(O)[C@H]1CC[C@H](NC(=O)[C@H]2C[C@H](Oc3cccc4scnc34)C2)CC1 [Example 109, (trans)-3-(Benzo[d]thiazol-4-yloxy)-N-((trans)-4-(2-hydroxypropan-2-yl)cyclohexyl)cyclobutanecarboxamide] | 0.01 to 0.0794 µM
26 | COc1ccc(F)cc1O[C@H]1C[C@H](C(=O)N[C@H]2CC[C@H](N3CCOCC3=O)CC2)C1 [Example 151, (trans)-3-(5-Fluoro-2-methoxyphenoxy)-N-((trans)-4-(3-oxomorpholino)cyclohexyl)cyclobutanecarboxamide] | 0.1 to 1 µM
27 | CC1(NC(=O)[C@H]2C[C@H](Oc3cc(F)cc4scnc34)C2)CN(c2ncccn2)C1 [Example 238, (trans)-3-((6-Fluorobenzo[d]thiazol-4-yl)oxy)-N-(3-methyl-1-(pyrimidin-2-yl)azetidin-3-yl)cyclobutanecarboxamide] | 0.1 to 1 µM
28 | CC(C)(O)[C@H]1CC[C@H](NC(=O)[C@H]2C[C@H](Oc3cc(F)ccc3F)C2)CC1 [Example 229, (trans)-3-(2,5-Difluorophenoxy)-N-((trans)-4-(2-hydroxypropan-2-yl)cyclohexyl)cyclobutanecarboxamide] | 0.1 to 1 µM
29 | CC(C)(O)Cc1csc(NC(=O)[C@H]2C[C@H](Oc3cccc4cccnc34)C2)n1 [Example 209, (trans)-N-(4-(2-Hydroxy-2-methylpropyl)thiazol-2-yl)-3-(quinolin-8-yloxy)cyclobutanecarboxamide trifluoroacetic acid salt] | 0.01 to 0.0794 µM
30 | O=C(NC1CCc2ccccc21)[C@H]1C[C@H](Oc2cccc3cccnc23)C1 (mixture of isomers) [Example 212, Racemic (trans)-N-(2,3-Dihydro-1H-inden-1-yl)-3-(quinolin-8-yloxy)cyclobutanecarboxamide] | 0.01 to 0.0794 µM
31 | Cc1nccc(N2CC(NC(=O)[C@H]3C[C@H](Oc4cccc5scnc45)C3)C2)n1 [Example 50, (trans)-3-(Benzo[d]thiazol-4-yloxy)-N-(1-(2-methylpyrimidin-4-yl)azetidin-3-yl)cyclobutanecarboxamide] | 0.01 to 0.0794 µM
32 | CC(C)(O)[C@H]1CC[C@H](NC(=O)N2CC(Oc3ccccc3OC(F)(F)F)C2)CC1 [Example 258] | 0.1 to 1 µM
33 | COc1ccc(F)cc1O[C@H]1C[C@H](C(=O)NC2CC3(C2)CC(C(C)(C)O)C3)C1 (mixture of isomers) [Example 160, Racemic (trans)-3-(5-Fluoro-2-methoxyphenoxy)-N-(6-(2-hydroxypropan-2-yl)spiro[3.3]heptan-2-yl)cyclobutanecarboxamide] | < 0.01 µM
34 | O=C(N[C@H]1CC[C@H](N2CCCS2(=O)=O)CC1)N1CC(Oc2cccc3scnc23)C1 [Example 101, 3-(Benzo[d]thiazol-4-yloxy)-N-((trans)-4-(1,1-dioxidoisothiazolidin-2-yl)cyclohexyl)azetidine-1-carboxamide] | 0.01 to 0.0794 µM
35 | CC(C)(O)[C@H]1CC[C@H](NC(=O)[C@H]2C[C@H](Oc3cc(F)cc4scnc34)C2)CC1 [Example 140, (trans)-3-((6-Fluorobenzo[d]thiazol-4-yl)oxy)-N-((trans)-4-(2-hydroxypropan-2-yl)cyclohexyl)cyclobutanecarboxamide] | 0.01 to 0.0794 µM
